Test results reported in PubChem BioAssay (NCI).
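A five-concentration, 48-hour dose response in 96-well plates underlies each endpoint, interpolated linearly between surrounding concentrations. Definition used: TGI = concentration required for complete inhibition of growth.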

What was measured:
Assay in all cases: NCI anticancer screen, dose series, 48 h
BT-549 breast = tested on: BT-549 breast
MCF7 breast = tested on: MCF7 breast
KM12 colon = tested on: KM12 colon
MALME-3M melanoma = tested on: MALME-3M melanoma
RPMI-8226 leukemia = tested on: RPMI-8226 leukemia
OVCAR-4 ovarian = tested on: OVCAR-4 ovarian
A498 renal = tested on: A498 renal
CAKI-1 renal = tested on: CAKI-1 renal
HOP-62 NSCLC = tested on: HOP-62 NSCLC
NCI-H23 lung = tested on: NCI-H23 lung
SK-OV-3 ovarian = tested on: SK-OV-3 ovarian
SK-MEL-2 melanoma = tested on: SK-MEL-2 melanoma
NCI-H460 lung = tested on: NCI-H460 lung
UACC-257 melanoma = tested on: UACC-257 melanoma
MDA-MB-231 breast = tested on: MDA-MB-231 breast
HCC-2998 colon = tested on: HCC-2998 colon
IGROV1 ovarian = tested on: IGROV1 ovarian
NCI/ADR-RES ovarian = tested on: NCI/ADR-RES ovarian
OVCAR-8 ovarian = tested on: OVCAR-8 ovarian
NCI-H226 lung = tested on: NCI-H226 lung
SK-MEL-5 melanoma = tested on: SK-MEL-5 melanoma
PC-3 prostate = tested on: PC-3 prostate
MDA-MB-435 = tested on: MDA-MB-435
HCT-15 colon = tested on: HCT-15 colon
LOX IMVI melanoma = tested on: LOX IMVI melanoma
SNB-19 CNS = tested on: SNB-19 CNS
COLO 205 colon = tested on: COLO 205 colon
DU-145 prostate = tested on: DU-145 prostate
TK-10 renal = tested on: TK-10 renal
ACHN renal = tested on: ACHN renal
U251 CNS = tested on: U251 CNS
A549 NSCLC = tested on: A549 NSCLC
MDA-N = tested on: MDA-N
HT29 colon = tested on: HT29 colon
HOP-92 NSCLC = tested on: HOP-92 NSCLC
SW-620 colon = tested on: SW-620 colon
UO-31 renal = tested on: UO-31 renal
EKVX NSCLC = tested on: EKVX NSCLC
M14 melanoma = tested on: M14 melanoma
T-47D breast = tested on: T-47D breast
SF-295 CNS = tested on: SF-295 CNS
K-562 leukemia = tested on: K-562 leukemia
RXF 393 renal = tested on: RXF 393 renal
HS 578T breast = tested on: HS 578T breast
SK-MEL-28 melanoma = tested on: SK-MEL-28 melanoma
786-0 renal = tested on: 786-0 renal
SN12C renal = tested on: SN12C renal
UACC-62 melanoma = tested on: UACC-62 melanoma
OVCAR-5 ovarian = tested on: OVCAR-5 ovarian
SF-268 CNS = tested on: SF-268 CNS
HCT-116 colon = tested on: HCT-116 colon
NCI-H522 lung = tested on: NCI-H522 lung
SR leukemia = tested on: SR leukemia
SF-539 CNS = tested on: SF-539 CNS
SNB-75 CNS = tested on: SNB-75 CNS
MOLT-4 leukemia = tested on: MOLT-4 leukemia
CCRF-CEM leukemia = tested on: CCRF-CEM leukemia
OVCAR-3 ovarian = tested on: OVCAR-3 ovarian
HL-60(TB) leukemia = tested on: HL-60(TB) leukemia

Nc1nc2nc3c(nc2c(=O)[nH]1)CN(c1ccc(C(=O)O)cc1)C3=O
TGI (BT-549 breast): > 100 µM
TGI (MCF7 breast): > 100 µM
TGI (KM12 colon): > 100 µM
TGI (MALME-3M melanoma): > 100 µM
TGI (RPMI-8226 leukemia): > 100 µM
TGI (OVCAR-4 ovarian): > 100 µM
TGI (A498 renal): > 100 µM
TGI (CAKI-1 renal): > 100 µM
TGI (HOP-62 NSCLC): 83.7 µM
TGI (NCI-H23 lung): > 100 µM
TGI (SK-OV-3 ovarian): > 100 µM
TGI (SK-MEL-2 melanoma): > 100 µM
TGI (NCI-H460 lung): > 100 µM
TGI (UACC-257 melanoma): > 100 µM
TGI (MDA-MB-231 breast): > 100 µM
TGI (HCC-2998 colon): > 100 µM
TGI (IGROV1 ovarian): > 100 µM
TGI (NCI/ADR-RES ovarian): > 100 µM
TGI (OVCAR-8 ovarian): > 100 µM
TGI (NCI-H226 lung): > 100 µM
TGI (SK-MEL-5 melanoma): > 100 µM
TGI (PC-3 prostate): > 100 µM
TGI (MDA-MB-435): > 100 µM
TGI (HCT-15 colon): > 100 µM
TGI (LOX IMVI melanoma): > 100 µM
TGI (SNB-19 CNS): > 100 µM
TGI (COLO 205 colon): > 100 µM
TGI (DU-145 prostate): > 100 µM
TGI (TK-10 renal): > 100 µM
TGI (ACHN renal): > 100 µM
TGI (U251 CNS): > 100 µM
TGI (A549 NSCLC): > 100 µM
TGI (MDA-N): > 100 µM
TGI (HT29 colon): > 100 µM
TGI (HOP-92 NSCLC): > 100 µM
TGI (SW-620 colon): > 100 µM
TGI (UO-31 renal): > 100 µM
TGI (EKVX NSCLC): > 100 µM
TGI (M14 melanoma): > 100 µM
TGI (T-47D breast): > 100 µM
TGI (SF-295 CNS): > 100 µM
TGI (K-562 leukemia): > 100 µM
TGI (RXF 393 renal): > 100 µM
TGI (HS 578T breast): > 100 µM
TGI (SK-MEL-28 melanoma): > 100 µM
TGI (786-0 renal): > 100 µM
TGI (SN12C renal): > 100 µM
TGI (UACC-62 melanoma): > 100 µM
TGI (OVCAR-5 ovarian): > 100 µM
TGI (SF-268 CNS): > 100 µM
TGI (HCT-116 colon): > 100 µM
TGI (NCI-H522 lung): > 100 µM
TGI (SR leukemia): > 100 µM
TGI (SF-539 CNS): > 100 µM
TGI (SNB-75 CNS): > 100 µM

CCCCC/C=C1/CC(CO)(COC(=O)CC(C(C)C)C(C)C)OC1=O (stereo not drawn)
TGI (BT-549 breast): 28.5 µM
TGI (MCF7 breast): 31.8 µM
TGI (KM12 colon): 30.5 µM
TGI (MALME-3M melanoma): 18.2 µM
TGI (OVCAR-4 ovarian): 41.8 µM
TGI (A498 renal): 26.5 µM
TGI (CAKI-1 renal): 23.1 µM
TGI (MOLT-4 leukemia): 26.2 µM
TGI (HOP-62 NSCLC): 20.7 µM
TGI (NCI-H23 lung): 31.7 µM
TGI (SK-OV-3 ovarian): 40.4 µM
TGI (SK-MEL-2 melanoma): 42.9 µM
TGI (NCI-H460 lung): > 100 µM
TGI (UACC-257 melanoma): 47.4 µM
TGI (MDA-MB-231 breast): 32.5 µM
TGI (CCRF-CEM leukemia): > 100 µM
TGI (HCC-2998 colon): 35.2 µM
TGI (IGROV1 ovarian): 31.7 µM
TGI (NCI/ADR-RES ovarian): 38.9 µM
TGI (OVCAR-8 ovarian): 31 µM
TGI (NCI-H226 lung): 24.9 µM
TGI (SK-MEL-5 melanoma): 21.5 µM
TGI (PC-3 prostate): 24.6 µM
TGI (MDA-MB-435): 19 µM
TGI (HCT-15 colon): 33.6 µM
TGI (SNB-19 CNS): 21.2 µM
TGI (COLO 205 colon): 14.7 µM
TGI (DU-145 prostate): 27.8 µM
TGI (TK-10 renal): 32.5 µM
TGI (ACHN renal): 24.7 µM
TGI (U251 CNS): 27.6 µM
TGI (A549 NSCLC): 27.1 µM
TGI (MDA-N): 17 µM
TGI (HT29 colon): 34.9 µM
TGI (HOP-92 NSCLC): 21.5 µM
TGI (SW-620 colon): 50.8 µM
TGI (UO-31 renal): 24.1 µM
TGI (EKVX NSCLC): 31.5 µM
TGI (M14 melanoma): 27.1 µM
TGI (T-47D breast): 40.5 µM
TGI (SF-295 CNS): 19.5 µM
TGI (K-562 leukemia): 66.3 µM
TGI (OVCAR-3 ovarian): 32.7 µM
TGI (RXF 393 renal): 29.8 µM
TGI (HS 578T breast): 9.09 µM
TGI (SK-MEL-28 melanoma): 26.7 µM
TGI (786-0 renal): 22.3 µM
TGI (SN12C renal): 26 µM
TGI (UACC-62 melanoma): 29.6 µM
TGI (OVCAR-5 ovarian): 29.7 µM
TGI (SF-268 CNS): 30.3 µM
TGI (HCT-116 colon): 28 µM
TGI (NCI-H522 lung): 29.9 µM
TGI (SR leukemia): 42.8 µM
TGI (SNB-75 CNS): 22.6 µM

N#CCCNCCN(CCN(C(=O)Nc1ccccc1)c1ccccc1)C(=O)Nc1ccccc1
TGI (BT-549 breast): > 100 µM
TGI (MCF7 breast): > 100 µM
TGI (MALME-3M melanoma): 54.8 µM
TGI (RPMI-8226 leukemia): > 100 µM
TGI (A498 renal): > 100 µM
TGI (MOLT-4 leukemia): > 100 µM
TGI (HOP-62 NSCLC): > 100 µM
TGI (HL-60(TB) leukemia): > 100 µM
TGI (NCI-H23 lung): > 100 µM
TGI (SK-OV-3 ovarian): > 100 µM
TGI (SK-MEL-2 melanoma): > 100 µM
TGI (NCI-H460 lung): > 100 µM
TGI (UACC-257 melanoma): 32.1 µM
TGI (MDA-MB-231 breast): > 100 µM
TGI (CCRF-CEM leukemia): > 100 µM
TGI (HCC-2998 colon): 36 µM
TGI (IGROV1 ovarian): > 100 µM
TGI (NCI/ADR-RES ovarian): > 100 µM
TGI (OVCAR-8 ovarian): > 100 µM
TGI (NCI-H226 lung): > 100 µM
TGI (SK-MEL-5 melanoma): 45 µM
TGI (PC-3 prostate): > 100 µM
TGI (HCT-15 colon): > 100 µM
TGI (LOX IMVI melanoma): > 100 µM
TGI (SNB-19 CNS): > 100 µM
TGI (COLO 205 colon): 46.3 µM
TGI (DU-145 prostate): > 100 µM
TGI (TK-10 renal): > 100 µM
TGI (ACHN renal): > 100 µM
TGI (U251 CNS): > 100 µM
TGI (A549 NSCLC): > 100 µM
TGI (MDA-N): > 100 µM
TGI (HT29 colon): > 100 µM
TGI (HOP-92 NSCLC): > 100 µM
TGI (SW-620 colon): > 100 µM
TGI (UO-31 renal): > 100 µM
TGI (EKVX NSCLC): > 100 µM
TGI (M14 melanoma): 46.1 µM
TGI (T-47D breast): > 100 µM
TGI (SF-295 CNS): > 100 µM
TGI (K-562 leukemia): > 100 µM
TGI (RXF 393 renal): > 100 µM
TGI (HS 578T breast): > 100 µM
TGI (SK-MEL-28 melanoma): 67.3 µM
TGI (786-0 renal): > 100 µM
TGI (SN12C renal): > 100 µM
TGI (UACC-62 melanoma): > 100 µM
TGI (OVCAR-5 ovarian): > 100 µM
TGI (SF-268 CNS): > 100 µM
TGI (HCT-116 colon): > 100 µM
TGI (NCI-H522 lung): 54.4 µM
TGI (SR leukemia): > 100 µM
TGI (SNB-75 CNS): > 100 µM
